Results on 9 compounds are retold here after ChEMBL document CHEMBL1201862, “PubChem BioAssay data set” (2004).

Test systems include A498; A549; ACHN; CAKI-1; EKVX; HCC 2998; HCT-15; MOLT-4; NCI-H23; NCI-H460; OVCAR-5; SF-539; SW-620; U-251; UACC-257; UO-31; MDA-N; NCI/ADR-RES; PC-3.
Experiment in all cases: DTP human tumour cell line panel, 48 h

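Exposure lasted 48 hours, with cells grown in 96-well plates and compounds tested at five concentrations. GI50 marks 50% less growth.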 The source made the active and inactive calls. Rule as the data show it: active = GI50 up to about 1.1 µM and inactive = higher. Peptide text beside a SMILES is read from it. * marks the point of attachment. Boc = CC(C)(C)OC(=O)*

As for `CC1(C)OC(=O)C(=C2CC(c3ccccc3)c3ccccc32)C(=O)O1` (stereo not drawn), the GI50 in the test with A498, in the test on A549, with ACHN, with CAKI-1, in the test with EKVX and with HCC 2998 was > 100 µM (inactive) in each case. In addition, the GI50 (in general, the concentration at which growth is held to half of that of the control) is above 100 µM in the test with HCT-15; > 100 µM (inactive) in the test with MOLT-4; > 100 µM (inactive) in the test with NCI-H23; > 100 µM (inactive) in the test with NCI-H460; > 100 µM (inactive) with OVCAR-5; > 100 µM (inactive) in the test on SF-539. Moreover, the GI50 with SW-620, in the test with U-251, in the test on UACC-257 and in the test on UO-31 was > 100 µM (inactive) each time.
In the case of `O=C(Nc1ccccc1)Nn1c(-c2cccs2)nc2ccc(I)cc2c1=O`, the GI50 is 19.2 µM (inactive) in the test on A549; 27.5 µM (inactive) in the test on ACHN; 23.8 µM (inactive) in the test on CAKI-1; 20.9 µM (inactive) in the test with EKVX; 25.8 µM (inactive) in the test with HCC 2998; 31.5 µM in the test on HCT-15. Moreover, the GI50 was 23.2 µM (inactive) in the test with MDA-N; 27.3 µM (inactive) with NCI-H23; 26.2 µM (inactive) with NCI-H460; 30.6 µM (inactive) in the test on NCI/ADR-RES; 27.7 µM (inactive) in the test on OVCAR-5; 27.4 µM (inactive) in the test with PC-3. Moreover, the GI50 with SF-539 is 33.7 µM (inactive); in the test on SW-620, 39.4 µM (inactive); with U-251 it was 23.9 µM (inactive); with UACC-257, 17.2 µM (inactive); in the test on UO-31, 21.2 µM (inactive).
`CC(C)N1CC2CC(CN(C(=O)c3ccccc3)C2)C1.[O-][Cl+3]([O-])([O-])O`: the GI50 in the test on A498, in the test on A549, with ACHN, in the test on CAKI-1, in the test with EKVX and in the test on HCC 2998 was > 100 µM (inactive) in each case. For the same compound, the GI50 is above 100 µM with HCT-15; > 100 µM (inactive) with MOLT-4; > 100 µM (inactive) in the test with NCI-H23; > 100 µM (inactive) in the test on NCI-H460; > 100 µM (inactive) with OVCAR-5; > 100 µM (inactive) in the test on SF-539. For the same compound, the GI50 in the test with SW-620, with U-251, in the test on UACC-257 and with UO-31 was > 100 µM (inactive) each time.
For the compound `CC1=C(/C(C)=N/NC(=O)C(N)=O)Sc2ccccc2N1`, the GI50 in the test with A498, in the test with A549, in the test on ACHN, with CAKI-1, in the test with EKVX and in the test with HCC 2998 was > 100 µM (inactive) throughout. Besides, the GI50 is above 100 µM in the test on HCT-15; > 100 µM (inactive) in the test with MOLT-4; > 100 µM (inactive) with NCI-H23; > 100 µM (inactive) in the test on NCI-H460; > 100 µM (inactive) with OVCAR-5; > 100 µM (inactive) with SF-539. In addition, the GI50 with SW-620, in the test with U-251, in the test with UACC-257 and with UO-31 was > 100 µM (inactive) each time.
Regarding `CC(=O)N1N=C(c2ccccc2Nc2ccccc2C2=NN(C(C)=O)C(c3ccccc3)O2)OC1c1ccccc1` (stereo not drawn), the GI50 in the test with A549 was 17.4 µM (inactive); in the test on ACHN, 86.5 µM (inactive); in the test on EKVX, 45.4 µM (inactive); in the test with HCC 2998, > 100 µM (inactive); in the test with HCT-15, 44.8 µM; in the test with MDA-N, 29 µM (inactive). Further, the GI50 is 4.76 µM (inactive) with MOLT-4; 60.7 µM (inactive) in the test with NCI-H23; 26.7 µM (inactive) in the test on NCI-H460; 55.6 µM (inactive) in the test with NCI/ADR-RES; > 100 µM (inactive) with OVCAR-5; 10.4 µM (inactive) with PC-3. Besides, the GI50 in the test with SW-620 was 99.8 µM (inactive); in the test on U-251 it was 63.5 µM (inactive); in the test with UO-31, 48.5 µM (inactive).
For `COc1cc(C(=O)C/C(CCC(=O)Nc2ccccc2[N+](=O)[O-])=N\NC(N)=O)ccc1O`, the GI50 was > 100 µM (inactive) in the test on A498; > 100 µM (inactive) with A549; > 100 µM (inactive) in the test on ACHN; > 100 µM (inactive) in the test on CAKI-1; 32.9 µM (inactive) in the test with EKVX; > 100 µM (inactive) in the test on HCC 2998. Moreover, the GI50 in the test on HCT-15 is above 100 µM; in the test with MOLT-4, > 100 µM (inactive); in the test with NCI-H23 it was > 100 µM (inactive); in the test on NCI-H460, > 100 µM (inactive); in the test on OVCAR-5, > 100 µM (inactive); with SF-539, > 100 µM (inactive). Also, the GI50 in the test with SW-620, in the test with U-251, with UACC-257 and in the test with UO-31 was > 100 µM (inactive) throughout.
As to `O=C(/C=C/c1ccc(Br)cc1)c1ccc(NCc2nc3ccccc3[nH]2)cc1`, the GI50 is 19.1 µM (inactive) in the test on A498; 5.77 µM (inactive) with A549; 17.5 µM (inactive) in the test with ACHN; 9.68 µM (inactive) in the test on CAKI-1; > 30.2 µM (inactive) with EKVX; 6.56 µM (inactive) with HCC 2998. The GI50 with HCT-15 is 3.95 µM; with MOLT-4 it was 3.31 µM (inactive); in the test on NCI-H23, 4.95 µM (inactive); in the test with NCI-H460 it was 8.22 µM (inactive); in the test on OVCAR-5 it was > 59.8 µM (inactive); in the test with SF-539, 10 µM (inactive). Also, the GI50 in the test on SW-620 is 2.96 µM (inactive); in the test on U-251 it was 3.83 µM (inactive); in the test on UACC-257, 3.81 µM (inactive); in the test with UO-31 it was 7.73 µM (inactive).
As for `Cn1c2ccccc2c2[nH]cc3nc4ccccc4c-3c21`, the GI50 in the test with A498 was 18.7 µM (inactive); in the test with A549 it was 22.6 µM (inactive); with ACHN it was 20.4 µM (inactive); with CAKI-1, 25.1 µM (inactive); in the test on EKVX, 9.71 µM (inactive); in the test with HCC 2998 it was > 100 µM (inactive). In addition, the GI50 with HCT-15 is 19.9 µM; with MOLT-4, 23.8 µM (inactive); in the test on NCI-H23 it was 17.1 µM (inactive); with NCI-H460, 15.5 µM (inactive); in the test on OVCAR-5, 19.2 µM (inactive); with SF-539, 18 µM (inactive). Further, the GI50 in the test on SW-620 is 24.7 µM (inactive); with U-251 it was 18.2 µM (inactive); with UACC-257, 22.3 µM (inactive); in the test with UO-31, 13 µM (inactive).
`COC(=O)C(Cc1c[nH]c2ccccc12)NC(=O)C(Cc1c[nH]c2ccccc12)NC(=O)C(Cc1c[nH]c2ccccc12)NC(=O)C(Cc1c[nH]c2ccccc12)NC(=O)C(Cc1c[nH]c2ccccc12)NC(=O)OC(C)(C)C` (stereo not drawn) (Boc-WWWWW-OMe; configuration not given here): the GI50 is 67 µM (inactive) in the test with A549; 74 µM (inactive) with ACHN; > 100 µM (inactive) with CAKI-1; > 100 µM (inactive) with HCC 2998; above 100 µM in the test on HCT-15; 92 µM (inactive) in the test on MDA-N. The GI50 was 19.6 µM (inactive) in the test on MOLT-4; 58.1 µM (inactive) with NCI-H23; 84.1 µM (inactive) in the test on NCI-H460; > 100 µM (inactive) in the test with OVCAR-5; > 100 µM (inactive) in the test on PC-3; > 100 µM (inactive) in the test with SW-620. Besides, the results for the GI50 with U-251, in the test with UACC-257 and in the test on UO-31 were 65.9 µM (inactive), > 100 µM (inactive) and 36.6 µM (inactive), respectively.
